Test results from article PMC3735939, “The low levels of eicosapentaenoic acid in rat brain phospholipids are maintained via multiple redundant mechanisms” (Journal of Lipid Research, 2013).

Columns and labels:
[1] = Brain acyl-CoA concentrations (LC-MS/MS) in vehicle- or MEP-treated rats; assay type: in vivo, rat; conditions: MEP vs vehicle
Protocol: At 15 weeks of age, 16 rats were randomized to receive vehicle or 10 mg/kg MEP via tail vein catheter as described above. Fifteen minutes post injection, rats were euthanized by head-focused high energy microwave irradiation (13.5 kW for 1.6 s) and brains were excised and sagittally cut for unesterified FAs/lipid mediators and acyl-CoA analyses as described below. Brain hemispheres were homogenized in ethanol to yield a concentration of 100 mg tissue/ml. The unesterified FAs from 100 mg of brain tissue were isolated. The unesterified FA bands were collected and extracted twice from silica by hexane:isopropanol (3:2 by volume) with 5.5% water. Extracted unesterified FAs were dried down with nitrogen gas and added with 100 μl of freshly made pentafluorobenzylbromide (PFB) cocktail consisting of acetonitrile:N,N-diisopropylethylamine:PFB (1 ml:100 μl:10 μl by volume). The mixtures were shaken for 15 min and dried down with nitrogen gas. FA-PFB esters (FAPEs) were reconstituted in 100 μl hexane for GC-MS analysis as described below.
Long chain acyl-CoA was extracted from the brains of vehicle- and MEP-treated rats as well as the brains of radiotracer-infused rats using a modified affinity chromatography method ([40]). Brains were homogenized by a probe sonicator in isopropanol:25 mM KH2PO4:acetonitrile (1:1:2 by volume) with 10 nmol of added internal standard, heptadecanoyl-CoA (17:0-CoA). Subsequently, protein was precipitated from the homogenate by the addition of saturated (NH4)2SO4. […]
Acyl-CoA concentrations were detected using an Agilent 1200 Binary LC pump (Agilent Technologies, Wilmington, DE) equipped with a Zorbax SB-Phenyl column (3 × 50 mm, 3.5 μm spherical size; Chromatographic Specialties, Brockville, ON, Canada). […] Peaks were identified and quantified by mass transitions, compound specific parameters, and standard curves of authentic acyl-CoA standards (Avanti, Alabaster, AL) (supplementary Fig. I). Concentrations were corrected for percent recovery of heptadecanoyl-CoA and expressed as nmol/g brain.

[2] = tested on: mitochondrial FA β-oxidation; assay: Radioactivity in brain aqueous fraction (marker of β-oxidation) after 5 min intravenous 14C-tracer infusion; assay type: in vivo, rat; conditions: MEP 10 mg/kg iv 10 min before infusion
Protocol: Twenty-four hours postsurgery, a second catheter (iv catheter 24 gauge/0.75 inch, Angiocath™; Becton Dickinson) was implanted into the tail vein where rats received either vehicle or 10 mg/kg of MEP. Ten minutes post injection of vehicle or MEP, the tail vein catheter was connected to a syringe containing radiolabeled ^14C-palmitate (n = 8), ^14C-DHA (n = 6), or ^14C-EPA (n = 7) attached to a computer-controlled variable speed pump (PHD 22/2000; Harvard Apparatus, Holliston, MA). […] Each rat received a dose of 76 μCi ^14C-palmitate, 76 μCi ^14C-DHA, or 78 μCi ^14C-EPA. […] The radiotracer infusions continued until rats were euthanized. The brain was excised and cut sagittally. Both hemispheres were stored at −80°C for radioactive and biochemical analyses. Plasma was isolated from whole blood via microcentrifugation at 6,200 rpm (2,000 g) for 5 min and stored at −80°C. Total lipids from one brain hemisphere and from plasma were extracted by the method of Folch, Lees, and Sloane Stanley ([39]). Isolation of various neutral lipid and phospholipid classes from the total lipid extract was previously described by Chen, Liu, and Bazinet ([6]).

In the case of `CCCCCCCCCCCCCCC1(C(=O)OC)CO1` (stereo not drawn) [MEP, methyl-2-tetradecylglycidate, reference compound], the “increase in brain α-linolenoyl-CoA concentration” value [1] is reported as 49%, the “reduction in brain DHA-CoA” value [1] is reported as 26% and the “reduction in brain EPA-CoA” value [1] is reported as 16%. The “reduction of radioactivity in brain aqueous fraction” value ([2]; 14C-DHA-infused rats) was 23%, the “reduction of radioactivity in brain aqueous fraction” value ([2]; 14C-EPA-infused rats) was 54% and the “reduction of radioactivity in brain aqueous fraction” value ([2]; 14C-palmitate-infused rats) was 74%.
